# Legend:
# [1] = biological target: Beta-1 adrenergic receptor (Homo sapiens, UniProt P08588); experiment: DRUGMATRIX: Adrenergic beta1 radioligand binding (ligand: [125I] Cyanopindolol); format: cell membranes, CHO-K1, Membrane; conditions: cho-k1; Not Active = under 50% inhibition at 10 µM
# [2] = biological target: T1, Cathepsin G (Homo sapiens, UniProt P08311); experiment: biochemical; format: tissue-based, Neutrophil;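 further: inhibition of Cathepsin G enzyme activity, tested on an AMC-conjugated peptide substrate; in other assays of this panel Not Active means under 50% inhibition at 10 µM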
# T1 sequence (P08311 whole entry): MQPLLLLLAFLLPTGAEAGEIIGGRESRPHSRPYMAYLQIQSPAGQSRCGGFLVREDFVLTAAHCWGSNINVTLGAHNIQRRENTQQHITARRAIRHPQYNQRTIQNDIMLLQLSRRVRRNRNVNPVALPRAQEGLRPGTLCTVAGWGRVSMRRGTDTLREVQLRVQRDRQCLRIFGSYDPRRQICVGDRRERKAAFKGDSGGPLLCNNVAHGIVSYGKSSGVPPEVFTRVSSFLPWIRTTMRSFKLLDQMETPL
# [3] = biological target: T2, Calcitonin receptor (Homo sapiens, UniProt P30988); format: cell membranes, Membrane; conditions: t47d; further: in other assays of this panel Not Active means under 50% inhibition at 10 µM
# T2 sequence (P30988 whole entry): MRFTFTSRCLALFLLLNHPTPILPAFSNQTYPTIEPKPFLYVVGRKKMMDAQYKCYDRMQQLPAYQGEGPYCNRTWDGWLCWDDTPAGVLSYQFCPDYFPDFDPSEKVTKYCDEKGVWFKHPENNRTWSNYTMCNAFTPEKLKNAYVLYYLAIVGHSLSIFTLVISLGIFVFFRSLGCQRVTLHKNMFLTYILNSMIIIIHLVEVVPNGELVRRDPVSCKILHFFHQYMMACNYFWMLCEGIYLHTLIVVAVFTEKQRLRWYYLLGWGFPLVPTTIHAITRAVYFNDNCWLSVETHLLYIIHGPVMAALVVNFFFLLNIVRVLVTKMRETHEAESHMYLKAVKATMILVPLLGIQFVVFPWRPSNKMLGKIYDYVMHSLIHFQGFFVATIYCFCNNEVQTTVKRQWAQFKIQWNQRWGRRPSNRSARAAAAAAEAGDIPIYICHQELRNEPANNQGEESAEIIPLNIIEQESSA
# [4] = biological target: T3, Angiotensin-converting enzyme (Oryctolagus cuniculus, UniProt P12822); experiment: biochemical; format: tissue-based, Lung;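 further: enzymatic inhibition of angiotensin-converting enzyme measured with FAPGG as the substrate; in other assays of this panel Not Active means under 50% inhibition at 10 µM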
# T3 sequence (P12822 whole entry): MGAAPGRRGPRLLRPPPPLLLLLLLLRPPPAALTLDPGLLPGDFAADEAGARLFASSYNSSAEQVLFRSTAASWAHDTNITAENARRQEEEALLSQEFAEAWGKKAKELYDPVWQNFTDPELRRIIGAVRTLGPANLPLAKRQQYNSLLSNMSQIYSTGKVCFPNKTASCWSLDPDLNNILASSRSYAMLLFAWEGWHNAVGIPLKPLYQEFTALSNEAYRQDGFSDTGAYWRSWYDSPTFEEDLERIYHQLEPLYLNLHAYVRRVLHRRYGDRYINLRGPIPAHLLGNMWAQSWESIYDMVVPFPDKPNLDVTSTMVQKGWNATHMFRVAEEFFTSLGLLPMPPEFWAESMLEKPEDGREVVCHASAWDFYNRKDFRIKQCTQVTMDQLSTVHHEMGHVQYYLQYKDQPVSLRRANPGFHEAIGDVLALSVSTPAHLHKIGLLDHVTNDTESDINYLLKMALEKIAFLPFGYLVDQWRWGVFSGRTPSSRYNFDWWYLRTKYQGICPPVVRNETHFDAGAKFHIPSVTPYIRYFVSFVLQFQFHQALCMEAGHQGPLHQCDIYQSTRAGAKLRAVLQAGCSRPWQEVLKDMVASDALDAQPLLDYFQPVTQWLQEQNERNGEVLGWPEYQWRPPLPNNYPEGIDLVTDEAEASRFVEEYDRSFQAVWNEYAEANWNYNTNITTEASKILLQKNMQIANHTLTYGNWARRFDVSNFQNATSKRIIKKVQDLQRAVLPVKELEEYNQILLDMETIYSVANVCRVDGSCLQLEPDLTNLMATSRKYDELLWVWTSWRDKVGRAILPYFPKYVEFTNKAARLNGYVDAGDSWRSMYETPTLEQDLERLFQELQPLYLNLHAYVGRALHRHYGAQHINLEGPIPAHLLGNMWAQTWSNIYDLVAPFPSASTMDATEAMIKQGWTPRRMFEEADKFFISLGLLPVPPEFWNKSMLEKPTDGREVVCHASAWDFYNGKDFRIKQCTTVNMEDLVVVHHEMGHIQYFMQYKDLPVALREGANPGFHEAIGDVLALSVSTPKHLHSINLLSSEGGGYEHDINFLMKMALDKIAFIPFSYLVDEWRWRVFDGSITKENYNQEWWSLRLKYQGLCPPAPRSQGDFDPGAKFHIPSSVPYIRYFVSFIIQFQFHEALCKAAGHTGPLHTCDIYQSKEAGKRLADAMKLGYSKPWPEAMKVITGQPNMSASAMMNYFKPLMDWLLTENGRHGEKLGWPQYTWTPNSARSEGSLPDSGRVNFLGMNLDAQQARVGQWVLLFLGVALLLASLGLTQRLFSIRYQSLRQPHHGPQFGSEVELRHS
# [5] = biological target: Acetylcholinesterase (Homo sapiens, UniProt P22303); experiment: DRUGMATRIX: Acetylcholinesterase enzyme inhibition (substrate: acetylthiocholine); format: cell-based, HEK293; conditions: hek293; Not Active = under 50% inhibition at 10 µM
# Chain of Acetylcholinesterase (P22303 whole entry): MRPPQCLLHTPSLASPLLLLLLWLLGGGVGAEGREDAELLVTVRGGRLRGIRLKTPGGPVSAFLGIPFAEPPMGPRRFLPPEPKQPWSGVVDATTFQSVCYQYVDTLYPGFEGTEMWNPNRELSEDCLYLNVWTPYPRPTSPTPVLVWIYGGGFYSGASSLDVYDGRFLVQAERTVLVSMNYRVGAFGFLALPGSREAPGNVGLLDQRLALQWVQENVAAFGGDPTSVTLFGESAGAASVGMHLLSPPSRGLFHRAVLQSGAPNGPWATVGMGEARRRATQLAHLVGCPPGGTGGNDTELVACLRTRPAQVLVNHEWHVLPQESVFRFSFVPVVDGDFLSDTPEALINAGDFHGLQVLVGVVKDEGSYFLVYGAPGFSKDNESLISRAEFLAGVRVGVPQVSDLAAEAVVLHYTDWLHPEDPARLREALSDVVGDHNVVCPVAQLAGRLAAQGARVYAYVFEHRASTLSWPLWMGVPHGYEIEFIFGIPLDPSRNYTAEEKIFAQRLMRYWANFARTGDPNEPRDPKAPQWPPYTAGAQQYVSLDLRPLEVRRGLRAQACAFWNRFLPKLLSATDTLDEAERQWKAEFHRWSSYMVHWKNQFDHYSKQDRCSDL
# [6] = biological target: T4, Amine oxidase [flavin-containing] A (Homo sapiens, UniProt P21397); experiment: DRUGMATRIX: Monoamine Oxidase MAO-A enzyme inhibition (substrate: Kynuramine); set-up: species or system BTI-TN-5B1-4; conditions: bti-tn-5b1-4; Not Active = under 50% inhibition at 10 µM
# T4 sequence (P21397 whole entry): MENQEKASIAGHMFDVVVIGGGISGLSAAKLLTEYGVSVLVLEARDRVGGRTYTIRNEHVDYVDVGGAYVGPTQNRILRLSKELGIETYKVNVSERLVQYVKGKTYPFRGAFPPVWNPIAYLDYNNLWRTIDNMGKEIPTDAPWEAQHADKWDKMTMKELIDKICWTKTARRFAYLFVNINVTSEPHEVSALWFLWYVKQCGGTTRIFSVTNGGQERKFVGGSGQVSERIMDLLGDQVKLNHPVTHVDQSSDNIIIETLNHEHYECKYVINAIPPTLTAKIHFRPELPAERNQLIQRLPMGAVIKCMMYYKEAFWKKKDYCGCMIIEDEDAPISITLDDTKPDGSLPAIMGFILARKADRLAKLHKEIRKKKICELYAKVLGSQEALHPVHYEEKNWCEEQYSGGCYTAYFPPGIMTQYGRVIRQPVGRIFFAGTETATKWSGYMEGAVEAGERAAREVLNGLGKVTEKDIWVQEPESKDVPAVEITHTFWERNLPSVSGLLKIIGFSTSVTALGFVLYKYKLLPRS
# [7] = DRUGMATRIX: Calcium Channel Type L, Dihydropyridine radioligand binding (ligand: [3H] Nitrendipine); format: cell membranes, Rattus norvegicus, Wistar, Cerebral cortex, Membrane; conditions: Not Active = under 50% inhibition at 10 µM
# Chain of Beta-1 adrenergic receptor (P08588 whole entry): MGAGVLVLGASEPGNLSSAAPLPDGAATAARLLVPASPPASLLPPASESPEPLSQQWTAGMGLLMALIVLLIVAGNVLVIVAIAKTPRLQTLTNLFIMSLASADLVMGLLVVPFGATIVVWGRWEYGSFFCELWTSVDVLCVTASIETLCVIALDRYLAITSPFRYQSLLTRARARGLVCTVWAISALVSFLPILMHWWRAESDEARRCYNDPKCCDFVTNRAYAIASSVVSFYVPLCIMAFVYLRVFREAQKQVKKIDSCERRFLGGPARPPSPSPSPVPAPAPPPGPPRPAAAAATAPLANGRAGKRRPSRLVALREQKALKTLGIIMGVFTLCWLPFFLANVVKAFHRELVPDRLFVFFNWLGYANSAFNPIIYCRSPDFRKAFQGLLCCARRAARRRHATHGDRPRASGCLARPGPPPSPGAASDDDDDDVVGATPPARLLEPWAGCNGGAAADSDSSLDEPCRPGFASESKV
Structure (SMILES),IC50 [1],IC50 ([2]; neutrophil),IC50 [3],IC50 [4],IC50 [5],IC50 [6],IC50 [7],Ki [7],IC50 ([2]; read-out: IC50) [µM]
Cc1cc2c(s1)Nc1ccccc1N=C2N1CCN(C)CC1 [OLANZAPINE],Not Active,Not Active,Not Active,Not Active,Not Active,Not Active,–,–,–
CC1(C)[C@H](C(=O)O)N2C(=O)C[C@H]2S1(=O)=O [SULBACTAM],Not Active,Not Active,Not Active,Not Active,Not Active,Not Active,Not Active,Not Active,–
Oc1ccc(/C=C/c2cc(O)cc(O)c2)cc1 [RESVERATROL],Not Active,Not Active,Not Active,Not Active,Not Active,–,Not Active,Not Active,–
O=C1CC[C@@]2(O)[C@H]3Cc4ccc(O)c5c4[C@@]2(CCN3CC2CC2)[C@H]1O5 [NALTREXONE],Not Active,Not Active,Not Active,Not Active,Not Active,Not Active,Not Active,Not Active,–
Cc1nnc(NS(=O)(=O)c2ccc(N)cc2)s1 [SULFAMETHIZOLE],Not Active,Not Active,Not Active,Not Active,Not Active,Not Active,Not Active,Not Active,–
C=CCc1ccc2c(c1)OCO2 [SAFROLE],Not Active,Not Active,Not Active,Not Active,Not Active,Not Active,Not Active,Not Active,–
Cc1cn([C@H]2C=C[C@@H](CO)O2)c(=O)[nH]c1=O [STAVUDINE],Not Active,Not Active,Not Active,Not Active,Not Active,Not Active,Not Active,Not Active,–
CC1=C(/C=C/C(C)=C/C=C/C(C)=C/C(=O)O)C(C)(C)CCC1 [TRETINOIN],Not Active,Not Active,Not Active,Not Active,Not Active,Not Active,Not Active,Not Active,–
Nc1nc(N)c2nc(-c3ccccc3)c(N)nc2n1,Not Active,–,Not Active,Not Active,Not Active,Not Active,Not Active,Not Active,7.41
CN1C(=O)OC(C)(C)C1=O [TRIMETHADIONE],Not Active,Not Active,Not Active,Not Active,Not Active,Not Active,Not Active,Not Active,–
Cc1ccc(S(=O)(=O)NC(=O)NN2CCCCCC2)cc1 [TOLAZAMIDE],Not Active,Not Active,Not Active,Not Active,Not Active,Not Active,Not Active,Not Active,–
O=C(O)c1cc(/N=N/c2ccc(S(=O)(=O)Nc3ccccn3)cc2)ccc1O [SULFASALAZINE],Not Active,Not Active,Not Active,Not Active,Not Active,Not Active,Not Active,Not Active,–
CCN(CC)C(=S)SSC(=S)N(CC)CC,Not Active,Not Active,Not Active,Not Active,Not Active,–,Not Active,Not Active,–
CS(=O)(=O)c1ccc(C2=C(c3ccccc3)C(=O)OC2)cc1 [ROFECOXIB],Not Active,Not Active,Not Active,Not Active,Not Active,Not Active,Not Active,Not Active,–
Cc1cnc(NC(=O)C2=C(O)c3ccccc3S(=O)(=O)N2C)s1 [MELOXICAM],Not Active,Not Active,Not Active,Not Active,Not Active,Not Active,Not Active,Not Active,–
C1CCN2C[C@@H]3C[C@@H](CN4CCCC[C@@H]34)[C@H]2C1 [SPARTEINE],Not Active,Not Active,Not Active,Not Active,Not Active,Not Active,Not Active,Not Active,–
CO[C@@H]1[C@@H](OC)[C@H](C)[C@@](O)(CC(=O)O)O[C@H]1[C@H](C)[C@H]1O[C@@]2(CC[C@@](C)([C@H]3CC[C@@](C)([C@@H]4O[C@@H]([C@H]5O[C@](C)(O)[C@H](C)C[C@@H]5C)C[C@@H]4O[C@@H]4C[C@H](OC)[C@@H](OC)[C@H](C)O4)O3)O2)C[C@H](O)[C@H]1C.N [MADURAMICIN],Not Active,Not Active,Not Active,Not Active,Not Active,Not Active,Not Active,Not Active,–
CC[C@@]1(O)C(=O)OCc2c1cc1n(c2=O)Cc2cc3c(CN(C)C)c(O)ccc3nc2-1 [TOPOTECAN],Not Active,Not Active,Not Active,Not Active,Not Active,Not Active,Not Active,Not Active,–
CNCCCC12CCC(c3ccccc31)c1ccccc12 [MAPROTILINE],Not Active,Not Active,Not Active,Not Active,Not Active,Not Active,–,–,–
CN(C)CCC=C1c2ccccc2COc2ccccc21 [DOXEPIN],–,Not Active,Not Active,Not Active,Not Active,Not Active,–,–,–
